Data published in the NIST ThermoML archive (doi:10.1021/je0501639).
“And” between values parts separate entries of the source, which are not always exact repeats. Equal values may be shown once. ± gives the expanded uncertainty stated by the source.

Columns and labels:
[1] = refractive index (Na D-line) (dimensionless); xn = mol fraction of the nth substance listed; conditions: 100.8 kPa, Liquid, Standard Abbe refractometry
[2] = xn = mol fraction of the nth substance listed; conditions: 100.8 kPa, Liquid
[3] = refractive index (Na D-line) (dimensionless); conditions: 101.33 kPa, Liquid, Standard Abbe refractometry
[4] = 100.8 kPa, Liquid
[5] = 298.15 K, Falling or rolling sphere viscometry
[6] = 308.15 K, Falling or rolling sphere viscometry
[7] = 318.15 K, Falling or rolling sphere viscometry

SMILES	refractive index ([3]; 298.15 K)	refractive index ([3]; 308.15 K)	refractive index ([3]; 318.15 K)	mass density ([4]; 298.15 K)	mass density ([4]; 308.15 K)	mass density ([4]; 318.15 K)	viscosity [4, 5]	viscosity [4, 6]	viscosity [4, 7]	refractive index ([1]; 298.15 K, x1 = 1)	refractive index ([1]; 308.15 K, x1 = 1)	refractive index ([1]; 318.15 K, x1 = 1)	mass density ([2]; 298.15 K, x1 = 1)	mass density ([2]; 308.15 K, x1 = 1)	mass density ([2]; 318.15 K, x1 = 1)	also measured
CC(C)CC(C)(C)C [2,2,4-trimethylpentane] + CC(C)(C)O																refractive index ([1]; 298.15 K, x2 = 0): 1.38898 ± 0.00032; refractive index ([1]; 308.15 K, x2 = 0): 1.38398 ± 0.00032; refractive index ([1]; 318.15 K, x2 = 0): 1.37898 ± 0.00032; mass density ([2]; 298.15 K, x2 = 0): 687.89 ± 0.32 kg/m3; viscosity ([2]; 298.15 K, x2 = 0): 0.475 ± 0.018 mPa·s; mass density ([2]; 308.15 K, x2 = 0): 679.55 ± 0.33 kg/m3; viscosity ([2]; 308.15 K, x2 = 0): 0.425 ± 0.017 mPa·s; mass density ([2]; 318.15 K, x2 = 0): 671.1 ± 0.34 kg/m3; viscosity ([2]; 318.15 K, x2 = 0): 0.38 ± 0.016 mPa·s
CC(C)CC(C)(C)C [2,2,4-trimethylpentane]	1.38898 ± 0.00032	1.38398 ± 0.00032	1.37898 ± 0.00032	687.89 ± 0.32 kg/m3	679.55 ± 0.33 kg/m3	671.1 ± 0.34 kg/m3										viscosity ([4]; 298.15 K): 0.474 ± 0.014 mPa·s and 0.475 ± 0.014 mPa·s; viscosity ([4]; 308.15 K): 0.425 ± 0.014 mPa·s; viscosity ([4]; 318.15 K): 0.38 ± 0.013 mPa·s
CC(C)(C)O [2-methylpropan-2-ol]	1.38481 ± 0.00033	1.3796 ± 0.00033	1.37416 ± 0.00033	780.99 ± 0.31 kg/m3	770.7 ± 0.31 kg/m3	760.05 ± 0.32 kg/m3	4.43 ± 0.04 mPa·s	2.622 ± 0.027 mPa·s	1.708 ± 0.02 mPa·s							
CCO [ethanol] + CC(C)(C)O										1.35932 ± 0.00031	1.35509 ± 0.00031	1.351 ± 0.00031	785.1 ± 0.24 kg/m3	776.43 ± 0.25 kg/m3	767.61 ± 0.26 kg/m3	viscosity ([2]; 298.15 K, Falling or rolling sphere viscometry, x1 = 1): 1.085 ± 0.014 mPa·s; viscosity ([2]; 308.15 K, Falling or rolling sphere viscometry, x1 = 1): 0.906 ± 0.014 mPa·s; viscosity ([2]; 318.15 K, Falling or rolling sphere viscometry, x1 = 1): 0.756 ± 0.013 mPa·s
CCO [ethanol]	1.35932 ± 0.00031	1.35509 ± 0.00031	1.351 ± 0.00031 and 1.35095 ± 0.00031	785.1 ± 0.24 kg/m3	776.43 ± 0.25 kg/m3	767.61 ± 0.26 kg/m3	1.085 ± 0.014 mPa·s	0.906 ± 0.014 mPa·s	0.756 ± 0.013 mPa·s							
CCO [ethanol] + CC(C)CC(C)(C)C										1.35932 ± 0.00031	1.35509 ± 0.00031	1.35095 ± 0.00031	785.1 ± 0.24 kg/m3	776.43 ± 0.25 kg/m3	767.61 ± 0.26 kg/m3	viscosity ([2]; 298.15 K, x1 = 1): 1.085 ± 0.02 mPa·s; viscosity ([2]; 308.15 K, x1 = 1): 0.906 ± 0.018 mPa·s; viscosity ([2]; 318.15 K, x1 = 1): 0.756 ± 0.016 mPa·s
